# Assay results: publication PMC10823475, “Design, Synthesis, and Evaluation of Inhibitors of Hedgehog Acyltransferase” (Journal of Medicinal Chemistry, 2024)
# Assays:
# [1] = target: T1, purified HHAT (Homo sapiens, UniProt Q5VTY9); assay: Acyl-cLIP assay, inhibition of purified HHAT; type: biochemical; settings: for fold increase in potency compared to racemate: enantiomer vs racemate (29 vs 21, 30 vs 24, 43 vs 39); for LLEAcyl-cLIP: from Acyl-cLIP IC50 and clogDpH7.4; for IC50: purified HHAT, read-out: Acyl-cLIP Assay IC50 (CI95)
# T1 construct: made in house
# T1 sequence (Q5VTY9 whole entry): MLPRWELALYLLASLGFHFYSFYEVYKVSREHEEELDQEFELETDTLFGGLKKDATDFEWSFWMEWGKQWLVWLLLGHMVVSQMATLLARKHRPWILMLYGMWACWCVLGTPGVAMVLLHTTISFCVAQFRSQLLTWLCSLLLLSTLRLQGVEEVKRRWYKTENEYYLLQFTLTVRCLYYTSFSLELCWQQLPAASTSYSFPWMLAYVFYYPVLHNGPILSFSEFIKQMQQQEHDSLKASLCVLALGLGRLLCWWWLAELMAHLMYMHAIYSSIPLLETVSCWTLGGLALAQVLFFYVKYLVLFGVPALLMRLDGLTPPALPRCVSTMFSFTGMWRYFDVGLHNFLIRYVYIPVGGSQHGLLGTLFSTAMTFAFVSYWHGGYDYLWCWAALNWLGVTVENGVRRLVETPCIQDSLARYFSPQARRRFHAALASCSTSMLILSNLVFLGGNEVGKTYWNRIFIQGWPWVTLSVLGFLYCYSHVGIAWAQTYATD
# Experimental: The inhibitory potency of all 50 compounds against purified HHAT was quantified using the acylation-coupled lipophilic induction of polarization (acyl-cLIP) assay recently developed in our lab, a universally applicable assay for high-throughput analysis of protein–lipid transferases and hydrolases.[31],[40] In brief, in this assay a fluorescently labeled peptide based on the N-terminal sequence of SHH is incubated with N-dodecyl β-D-maltoside (DDM) solubilized purified HHAT, palmitoyl-CoA, and HHAT inhibitors. Binding of the lipidated peptide product to the DDM micelle results in decreased tumbling rate and an increase in polarization of fluorescence emission, enabling facile quantification of HHAT activity. Initially, % HHAT inhibition was determined at 50 μM and 25 μM for all analogues. […] HHAT is a 12-pass TM protein,[14] and we considered whether lipophilicity might bias inhibition; pIC50 values were compared to calculated log D, which indicated no significant correlation (SI, Table S1 and Figure S2). We concluded that lipophilicity is not a general driver of HHAT inhibitory potency.
# The acyl-cLIP assay has been described previously.[40] Briefly, SHH-FAM peptide was diluted in buffer A (100 mM MES, 20 mM NaCl, 1 mM DTT, 1 mM TCEP, 0.1% BSA, pH 6.5) to a concentration of 2 μM. Palmitoyl-CoA (Sigma-Aldrich) was diluted in buffer A to 7.5 μM and recombinant HHAT (obtained by following the published protocol[14]) in buffer B (20 mM HEPES, 350 mM NaCl, 1% DDM, 5% glycerol, pH 7.3) diluted to 44 μg/mL. 1.5 μL of a 50 mM inhibitor DMSO stock was diluted with 18.5 μL of DMSO and further serial diluted (1:1). For each condition, 6 μL of the HHAT working stock and […] of the SHH-peptide working stock were mixed with 3 μL of the corresponding inhibitor concentration or DMSO vehicle. Twelve μL/well of this mixture was split into four wells of a black 384 well plate. To start the reaction, 8 μL of the Pal-CoA working stock were added to each well and fluorescence anisotropy and the total fluorescence recorded on an EnVision Xcite 2104 (PerkinElmer) over 30 min (emission filter 1 = FITC FP P-pol 535; emission filter 2 = FITC S-pol 535; excitation filter: FITC FP 480; measurement height = 6.5 mm; detector gain = 0; high concentration gain). Initial rate constants were determined by linear regression and normalized to DMSO control and samples with buffer B instead of HHAT. IC50 values were extracted from the corresponding dose response curves using a “sigmoidal dose response (variable slope)” model in GraphPad Prism 5 (GraphPad Software, Inc.).
# [2] = MTS assay, cytotoxicity (72 h); type: cell-based; settings: human, HEK293a SHH+ cells, 72 h; for CC50 at 72 h: read-out: MTS Assay (HEK293a SHH+) CC50 (CI95)
# Experimental: (§1) The survival of HEK293a SHH^+ cells is independent of HH signaling,[35] therefore, the cytotoxicity of analogues was tested using the MTS assay to investigate off-target toxicity. In this assay, HEK293a SHH^+ cells were treated with DMSO vehicle or varying concentrations of analogues for 72 h. Subsequently, a mixture of 1-methoxy phenazine methosulfate (PMS) and [3-(4,5-dimethylthiazol-2-yl)-5-(3-carboxymethoxyphenyl)-2-(4-sulfophenyl)-2H-tetrazolium] (MTS) was added to enable quantification of cell number via colorimetric analysis. […] Compounds 3, 17, 19, 32, 34, 38, and 45, which all contain a 2-((2-methylbutyl)amino)acetyl, were toxic to HEK293a SHH^+ cells, as were ureas 26, 40, and 41.
# (§2) HEK293a SHH^+ cells were plated at 5000 cells/well in a 96-well plate (Nunc) using a volume of 50 μL/well and cultured for 24 h as described. Cells were treated with 100 μL/well of either DMSO vehicle, Puromycin (2 μg/mL), or stated analogues (0.14–100 μM final) in DMEM supplemented with 10% FBS. After 72 h, 20 μL/well of a mixture of 1-methoxy phenazine methosulfate (PMS) and [3-(4,5-dimethylthiazol-2-yl)-5-(3-carboxymethoxyphenyl)-2-(4-sulfophenyl)-2H-tetrazolium] (MTS) at a ratio of MTS/PMS = 2/0.92 mg/mL in PBS was added and the plates were incubated for 3 h at 37 °C. Subsequently, the absorption at 490 nm was recorded using an EnVision Xcite 2104 (PerkinElmer), and the response was normalized to vehicle control and Puromycin treated samples. Dose response curves were fitted to a “sigmoidal dose response (variable slope)” model using GraphPad Prism 5 (GraphPad Software, Inc.).
# [3] = system: HEK293a SHH+ cells; assay: MTS assay, cytotoxicity (72 h); type: cell-based; settings: for decrease in cell viability / cell survival: 12.5 μM; for CC50: 72 h, read-out: MTS Assay (HEK293a SHH+) CC50 (CI95)
# Experimental: as §1, §2
# [4] = system: HH signaling (HEK293a SHH+ conditioned media on SHH-Light2 cells); assay: Light2 dual-luciferase cell-based HH signaling assay (Firefly); settings: Firefly luciferase, Light2 cells; read-out: HH signaling inhibition EC50 (CI95)
# Experimental: Subsequently, the effect of analogues on HH signaling was investigated using a cellular luciferase reporter assay. Light2 cells derived from NIH3T3 cells constitutively express Renilla luciferase as an internal control for cell density alongside Firefly luciferase under the control of a HH-responsive Gli promoter.[43] HEK293a SHH^+ cells were incubated with varying inhibitor concentrations and SHH-containing conditioned media transferred to the NIH3T3-Light2 cells to mimic paracrine signaling[30],[35] (Figure 6A).
# The Light2 cell-based signaling assay has been described previously.[35] Briefly, HEK293a SHH^+ cells were plated at 120,000 cells/well of a 12-well plate in a volume of 1 mL/well and cultured as described above. After 24 h, cells were washed with PBS, followed by addition of 1 mL of media containing 0.2% DMSO or varying inhibitor concentrations in DMSO (0.041–30 μM final). Additionally, SHH-Light2 cells were plated at 20,000 cells/well of a 96-well plate in 50 μL media. After another 24 h, 300 μL of the conditioned media were collected from each well of the treated HEK293a SHH^+ cells, centrifuged at 1000g for 10 min to remove detached cells and split into three wells of the SHH-Light2 cells (100 μL/well; 150 μL final volume in each well). The treated Light2 cells were cultured for another 48 h and subsequently washed with PBS. Firefly and Renilla luciferase activity was measured using the Dual-Luciferase reporter system (Promega Corporation, USA). Then 20 μL of 1× passive lysis buffer were added to each well. After 30 min at RT, 5 μL of each lysate were transferred to a white opaque 96-well plate. Then 20 μL/well of luciferase assay reagent II was added and the luminescence immediately recorded using a SpectraMax i3x plate reader (Molecular Devices LLC). Subsequently, 20 μL/well of 1× Stop&Glo substrate in Stop&Glo buffer was added and the luminescence immediately recorded for a second time. Data was evaluated using a “sigmoidal dose response (variable slope)” model in GraphPad Prism 5 (GraphPad Software, Inc.). The luminescence signal of the Firefly luciferase was normalized to the DMSO vehicle (100%) and the unconditioned media (0%) controls.
SMILES,inhibition at 25 µM [1],inhibition at 50 µM [1],fold increase in potency compared to racemate [1],LLEAcyl-cLIP [1],IC50 [1],CC50 at 72 h [2],"viability at 72 h, 12.5 µM [2]","viability at 72 h, 25 µM [2]",decrease in cell viability / cell survival [3],CC50 [3],EC50 [4],toxicity to HEK293a SHH+ cells [3]
"CC(C)CNCC(=O)N1CCc2ccccc2C1c1ccccc1 (stereo in doubt) [Compound 43, (R)-2-((2-Methylpropyl)amino)-1-(1-phenyl-3,4-dihydroisoquinolin-2(1H)-yl)ethan-1-one]",88 ± 3%,93 ± 3%,2 fold,3.64,2.77 µM,> 50 µM,98 ± 2%,97 ± 3%,< 30%,> 100 µM,0.8 µM,
"C=CCNCC(=O)N1CCc2sccc2C1c1ccccc1 (stereo not shown) [Compound 12, 2-(Allylamino)-1-(4-phenyl-6,7-dihydrothieno[3,2-c]pyridin-5(4H)-yl)ethan-1-one]",68 ± 5%,83 ± 1%,,2.94,6.55 µM,> 50 µM,86 ± 2%,73 ± 2%,< 30%,,2.92 µM,
"CCC(C)CNCC(=O)N1CCc2sccc2C1c1ccccn1 (stereo not shown) [Compound 19, 2-(2-Methylbutylamino)-1-[4-(pyridin-2-yl)-6,7-dihydro-4H-thieno[3,2-c]pyridin-5-yl]ethanone]",81 ± 1%,91 ± 1%,,3.84,7.98 µM,20.3 µM,87 ± 1%,75 ± 4%,< 30%,,0.58 µM,toxic
CC[C@H](C)CNCC(=O)N1CCc2sccc2C1c1cccc(C)n1 (stereo partly shown) [Compound 23],87 ± 7%,86 ± 8%,,4.04,3.71 µM,> 50 µM,87 ± 2%,74 ± 3%,,> 100 µM,1.58 µM,
"CC(=O)N1CCc2sccc2[C@@H]1c1cccc(C)n1 [Compound 29, (R)-1-(4-(6-Methylpyridin-2-yl)-6,7-dihydrothieno[3,2-c]pyridin-5(4H)-yl)ethan-1-one]",76 ± 2%,86 ± 2%,2 fold,3.10,7.45 µM,> 50 µM,92 ± 3%,88 ± 5%,< 30%,> 100 µM,1.29 µM,
"CCC(C)CNCC(=O)N1CCc2sccc2C1c1ccccc1OC (stereo not shown) [Compound 32, 1-(4-(2-Methoxyphenyl)-6,7-dihydrothieno[3,2-c]pyridin-5(4H)-yl)-2-((2-methylbutyl)amino)ethan-1-one]",66 ± 2%,79 ± 2%,,3.00,8.09 µM,7.6 µM,55 ± 3%,42 ± 2%,,,> 30 µM,toxic
"CC(C)CNCC(=O)N1CCc2ccccc2C1c1ccccc1 (stereo not shown) [Compound 39, 2-((2-Methylpropyl)amino)-1-(1-phenyl-3,4-dihydroisoquinolin-2(1H)-yl)ethan-1-one]",81 ± 2%,86 ± 1%,,3.30,6.02 µM,> 50 µM,94 ± 3%,92 ± 4%,< 30%,> 100 µM,2.59 µM,
"CCC(C)CNCC(=O)N1CCc2ccc(Cl)cc2C1c1ccccc1 (stereo not shown) [Compound 45, 1-(7-Chloro-1-phenyl-3,4-dihydroisoquinolin-2(1H)-yl)-2-((2-methylbutyl)amino)ethan-1-one]",89 ± 3%,93 ± 3%,,2.43,4.22 µM,15.4 µM,70 ± 3%,14 ± 4%,< 30%,,6.44 µM,toxic
